Measurements: patent publication US6713269B2, “Methods for identifying potential therapeutic agents for treatment of osteoporosis using mitogenic indices” (co.don Aktiengesellschaft, priority 1995, dated 2004)

Tested on: human osteoblast precursor cells
Experiment: Cell proliferation rate under the influence of growth factors, using bromodeoxyuridine incorporation (BrdU incorporation)
Format: cell-based
Details: 54 h incubation + 18 h BrdU labelling, OD at 405 nm
Description: 3,000 osteoblastic cells from fractions t1 to 2 up to the second passage, recovered from osteoporotic patients (OP cells), per well of a 96-well microwell plate were incubated in the presence of 10% FCS and 10% inactivated human control serum in a cell culture medium (α-MEM and HAM-S F12 medium […]) for 48 h, 120 h and 192 h. In parallel, 3,000 osteoblastic cells from non-osteoporotic patients were incubated under the same conditions. The number of intact cells was determined by means of trypan blue staining and counting in a counting chamber. 4. Determination of the cell proliferation rate under the influence of the three growth factors 1, 2 and 3 using bromodeoxyuridine incorporation (BrdU incorporation) Growth factor 1 =TGF-β2
Cells from fraction 1 and/or 2 of each punched-out bone piece up to the 2nd passage were used in the proliferation test.
3 ×10^3 cells from the first and/or second passage per well of a 96-well plate and 200 μl of medium were used.
The cells were cultivated for three days under the conditions previously described and subsequently cultivated further for one day in medium with no serum until subconfluence was reached.
Thereafter, the three growth factors 1, 2 and 3 were added to the cells at four different final concentrations (100, 10, 1, and 0.1 ng/ml medium).
Cells in a medium containing 10% FKS and in a medium containing 5% Ultroser served as controls.
Triplets were set up for all concentrations and controls.
Six wells including cells, to which no bromodeoxyuridine had been added during the proliferation test served as blank controls.
After 54 hours of incubation with the growth factors, the proliferation test (5-Bromo-2′-deoxyuridine Labeling and Detection Kit III by Boehringer Mannheim) was initiated by adding 20 μl of labelling solution diluted 1:90 in 1% BSA medium and subsequent incubation for 18 hours.
The proliferation test was conducted according to the manufacturer's instructions.
Evaluation of the proliferation test was effected by measuring the optical density (OD) at 405 nm in an ELISA reader. After 60 minutes of color development, the absorbance was measured 12 times at intervals of 5 minutes.

| Substance | Absorbance mean value (0.1 ng/ml medium) | Absorbance mean value (1 ng/ml medium) | Absorbance mean value (10 ng/ml medium) | Absorbance mean value (100 ng/ml medium) |
| --- | --- | --- | --- | --- |
| IGF I: protein growth factor 2 (insulin-like growth factor I) | 0.151 | 0.148 | 0.140 | 0.140 |
| IGF II: protein growth factor 3 (insulin-like growth factor II) | 0.148 | 0.150 | 0.139 | 0.140 |
